Results as given in the CheMixHub viscosity set.

Assay: xn = mol fraction of the nth substance listed

CCOCCOCCO + CCCO
viscosity [mPa·s], 101 kPa
Details	298.15 K	308.15 K	318.15 K
x1 = 0.0114	1.94	1.509	1.233
x1 = 0.0195	1.939	1.508	1.233
x1 = 0.0356	1.947	1.516	1.248
x1 = 0.0469	1.955	1.517	1.249
x1 = 0.0557	1.95	1.526	1.259
x1 = 0.0883	1.972	1.546	1.277
x1 = 0.1002	1.992	1.558	1.281
x1 = 0.136	2.017	1.588	1.308
x1 = 0.1447	2.04	1.589	1.316
x1 = 0.168	2.051	1.617	1.341
x1 = 0.245	2.184	1.701	1.409
x1 = 0.2877	2.294	1.756	1.456
x1 = 0.3493	2.473	1.868	1.567
x1 = 0.411	2.616	1.984	1.657
x1 = 0.4745	2.761	2.1	1.752
x1 = 0.536	2.889	2.191	1.822
x1 = 0.6067	3.022	2.29	1.903
x1 = 0.6682	3.138	2.378	1.978
x1 = 0.7228	3.248	2.453	2.044
x1 = 0.7879	3.383	2.55	2.118
x1 = 0.8412	3.494	2.622	2.178
x1 = 0.894	3.6	2.695	2.238
x1 = 0.9378	3.694	2.76	2.281
x1 = 0.9751	3.755	2.813	2.324

O=[N+]([O-])c1ccccc1 + CCCO
viscosity [mPa·s], 101.33 kPa
Details	x1 = 0.0517	x1 = 0.1088	x1 = 0.173	x1 = 0.2456	x1 = 0.3276	x1 = 0.4224	x1 = 0.5322	x1 = 0.6613	x1 = 0.8145
298.15 K	1.815	1.725	1.606	1.56	1.511	1.49	1.478	1.494	1.55
303.15 K	1.613	1.558	1.455	1.394	1.402	1.363	1.341	1.352	1.431

CCCCCCCCCCCCCC + CCCOC(C)=O
298.15 K, 101.33 kPa
Details	viscosity [mPa·s]
x1 = 0.066	0.605
x1 = 0.0941	0.632
x1 = 0.1299	0.673
x1 = 0.1877	0.734
x1 = 0.2573	0.815
x1 = 0.3129	0.88
x1 = 0.4379	1.045
x1 = 0.5495	1.204
x1 = 0.6576	1.369
x1 = 0.8073	1.631
x1 = 0.8924	1.814

CCCCCCC + CCO
Details	viscosity [mPa·s]
293.15 K, 101 kPa, x1 = 0.1005	0.9853
293.15 K, 101 kPa, x1 = 0.202	0.8256
293.15 K, 101 kPa, x1 = 0.3022	0.7149
293.15 K, 101 kPa, x1 = 0.4016	0.6285
293.15 K, 101 kPa, x1 = 0.5079	0.567
293.15 K, 101 kPa, x1 = 0.5967	0.516
293.15 K, 101 kPa, x1 = 0.7041	0.4658
293.15 K, 101 kPa, x1 = 0.8008	0.4428
293.15 K, 101 kPa, x1 = 0.8935	0.423
298.15 K, 100 kPa, x1 = 0.0472	1.002
298.15 K, 100 kPa, x1 = 0.1004	0.9149
298.15 K, 100 kPa, x1 = 0.199	0.7776
298.15 K, 100 kPa, x1 = 0.3003	0.6663
298.15 K, 100 kPa, x1 = 0.3994	0.5825
298.15 K, 100 kPa, x1 = 0.507	0.5154
298.15 K, 100 kPa, x1 = 0.5988	0.4742
298.15 K, 100 kPa, x1 = 0.6751	0.449
298.15 K, 100 kPa, x1 = 0.7394	0.4327
298.15 K, 100 kPa, x1 = 0.8085	0.4191
298.15 K, 100 kPa, x1 = 0.9003	0.4048
298.15 K, 101 kPa, x1 = 0.1005	0.9069
298.15 K, 101 kPa, x1 = 0.202	0.7656
298.15 K, 101 kPa, x1 = 0.3022	0.6673
298.15 K, 101 kPa, x1 = 0.4016	0.5856
298.15 K, 101 kPa, x1 = 0.5079	0.5214
298.15 K, 101 kPa, x1 = 0.5967	0.4815
298.15 K, 101 kPa, x1 = 0.7041	0.4422
298.15 K, 101 kPa, x1 = 0.8008	0.4149
298.15 K, 101 kPa, x1 = 0.8935	0.4021
298.15 K, 101.33 kPa, x2 = 0.0831	0.413
298.15 K, 101.33 kPa, x2 = 0.1075	0.394
298.15 K, 101.33 kPa, x2 = 0.1985	0.426
298.15 K, 101.33 kPa, x2 = 0.1999	0.408
298.15 K, 101.33 kPa, x2 = 0.2981	0.444
298.15 K, 101.33 kPa, x2 = 0.3001	0.433
298.15 K, 101.33 kPa, x2 = 0.3932	0.465
298.15 K, 101.33 kPa, x2 = 0.4315	0.487
298.15 K, 101.33 kPa, x2 = 0.5009	0.517
298.15 K, 101.33 kPa, x2 = 0.5079	0.521
298.15 K, 101.33 kPa, x2 = 0.5973	0.584
298.15 K, 101.33 kPa, x2 = 0.6092	0.584
298.15 K, 101.33 kPa, x2 = 0.7009	0.653
298.15 K, 101.33 kPa, x2 = 0.7209	0.69
298.15 K, 101.33 kPa, x2 = 0.8165	0.766
298.15 K, 101.33 kPa, x2 = 0.8241	0.808
298.15 K, 101.33 kPa, x2 = 0.9	0.883
298.15 K, 101.33 kPa, x2 = 0.907	0.922
298.15 K, 101.33 kPa, x2 = 0.9744	1.039
303 K, 101.33 kPa, x2 = 0.3521	0.43
303 K, 101.33 kPa, x2 = 0.5917	0.566
303 K, 101.33 kPa, x2 = 0.7654	0.698
303 K, 101.33 kPa, x2 = 0.8969	0.863
303.15 K, 101 kPa, x1 = 0.1005	0.8186
303.15 K, 101 kPa, x1 = 0.202	0.695
303.15 K, 101 kPa, x1 = 0.3022	0.6164
303.15 K, 101 kPa, x1 = 0.4016	0.5429
303.15 K, 101 kPa, x1 = 0.5079	0.4865
303.15 K, 101 kPa, x1 = 0.5967	0.4506
303.15 K, 101 kPa, x1 = 0.7041	0.4154
303.15 K, 101 kPa, x1 = 0.8008	0.3953
303.15 K, 101 kPa, x1 = 0.8935	0.3827
308.15 K, 101 kPa, x1 = 0.1005	0.7535
308.15 K, 101 kPa, x1 = 0.202	0.6432
308.15 K, 101 kPa, x1 = 0.3022	0.5695
308.15 K, 101 kPa, x1 = 0.4016	0.5077
308.15 K, 101 kPa, x1 = 0.5079	0.4521
308.15 K, 101 kPa, x1 = 0.5967	0.4271
308.15 K, 101 kPa, x1 = 0.7041	0.3957
308.15 K, 101 kPa, x1 = 0.8008	0.3691
308.15 K, 101 kPa, x1 = 0.8935	0.3633
313 K, 101.33 kPa, x2 = 0.3521	0.38
313 K, 101.33 kPa, x2 = 0.5917	0.483
313 K, 101.33 kPa, x2 = 0.7654	0.587
313 K, 101.33 kPa, x2 = 0.8969	0.719
323 K, 101.33 kPa, x2 = 0.3521	0.337
323 K, 101.33 kPa, x2 = 0.5917	0.417
323 K, 101.33 kPa, x2 = 0.7654	0.5
323 K, 101.33 kPa, x2 = 0.8969	0.606

CCCCCCCC + CCO
298.15 K, 101.33 kPa
Details	viscosity [mPa·s]
x2 = 0.0986	0.523
x2 = 0.2153	0.533
x2 = 0.3204	0.557
x2 = 0.4431	0.603
x2 = 0.6117	0.686
x2 = 0.7378	0.779
x2 = 0.8362	0.873
x2 = 0.9134	0.973
x2 = 0.9773	1.071

CN(C)C=O + CCO
viscosity [mPa·s], 101 kPa
Details	293.15 K	298.15 K	303.15 K	313.15 K	323.15 K
x1 = 0.3863	–	0.881	–	–	–
x1 = 0.5	–	–	0.758	0.649	0.563
x2 = 0.0999	0.871	0.819	0.77	0.682	0.61
x2 = 0.2	0.876	0.818	0.767	0.68	0.604
x2 = 0.3	0.882	0.822	0.77	0.681	0.603
x2 = 0.4	0.881	0.821	0.767	0.674	0.596
x2 = 0.5001	0.872	0.813	0.759	0.668	0.592
x2 = 0.6	0.886	0.825	0.769	0.67	0.59
x2 = 0.7	0.919	0.852	0.791	0.685	0.598
x2 = 0.8	0.97	0.897	0.828	0.712	0.616
x2 = 0.9001	1.067	0.977	0.897	0.762	0.651

COCC(C)O (centres undefined) + CCO
viscosity [mPa·s], 101.33 kPa
Details	298.15 K	308.15 K	318.15 K
x1 = 0.0501	1.128	0.933	0.779
x1 = 0.1	1.174	0.964	0.801
x1 = 0.15	1.215	0.994	0.822
x1 = 0.2	1.253	1.025	0.846
x1 = 0.25	1.297	1.055	0.866
x1 = 0.3003	1.333	1.081	0.887
x1 = 0.35	1.369	1.111	0.909
x1 = 0.3999	1.405	1.138	0.928
x1 = 0.45	1.44	1.163	0.947
x1 = 0.5	1.477	1.188	0.964
x1 = 0.5498	1.508	1.211	0.979
x1 = 0.5998	1.537	1.23	0.991
x1 = 0.6498	1.564	1.245	1.004
x1 = 0.7	1.589	1.263	1.017
x1 = 0.75	1.61	1.275	1.029
x1 = 0.8002	1.629	1.289	1.038
x1 = 0.8498	1.647	1.3	1.048
x1 = 0.8999	1.665	1.308	1.058
x1 = 0.9499	1.677	1.318	1.068

O=[N+]([O-])c1ccccc1 + CCO
viscosity [mPa·s], 101.33 kPa
Details	x1 = 0.0399	x1 = 0.0856	x1 = 0.1382	x1 = 0.1997	x1 = 0.2723	x1 = 0.3595	x1 = 0.4661	x1 = 0.5995	x1 = 0.7711
298.15 K	1.06	1.048	1.061	1.073	1.116	1.166	1.201	1.317	1.44
303.15 K	0.9662	0.9579	0.9691	0.9809	1.01	1.068	1.085	1.207	1.312

C=COCCCC + CCOC(=O)OCC
viscosity [mPa·s], 100 kPa
Details	x2 = 0.1011	x2 = 0.2003	x2 = 0.2975	x2 = 0.4029	x2 = 0.4992	x2 = 0.6014	x2 = 0.6975	x2 = 0.7978	x2 = 0.9004
303.15 K	0.406	0.429	0.452	0.48	0.509	0.542	0.575	0.614	0.656
308.15 K	0.386	0.406	0.43	0.454	0.483	0.515	0.547	0.583	0.62
313.15 K	0.365	0.383	0.403	0.426	0.451	0.481	0.511	0.545	0.582
